Measurements from paper PMC10526274, “Epithelial-Immune Cell Crosstalk Determines the Activation of Immune Cells In Vitro by the Human Cathelicidin LL-37 at Low Physiological Concentrations” (Biomolecules, 2023).
Values joined by “and” are separate entries in the source; they are usually repeats but may differ in a detail not shown here. Identical values can stand only once.

Tested on: Caco-2/monocytes co-culture
Test: Multiplex xMAP cytokine levels, Caco-2/monocytes co-culture stimulated with LL-37
Type: cell-based, human
Conditions: monocytes/Caco-2 co-culture, 1 µM LL-37, 24 h, n=2
Description: Caco-2 cell line (ATCC HTB-37) was cultured in a humidified CO2-incubator (5% CO2, 37 °C) in the complete DMEM/F12 (1:1) medium (Gibco, Waltham, MA, USA) containing 10% fetal bovine serum (FBS, Gibco) and 1X antibiotic–antimycotic solution (Gibco). To stabilize the cell phenotype, Caco-2 cells have been subcultivated three times before seeding on the filter supports. Then, Caco-2 cells were seeded at a density of 2 × 10^5 cells/cm^2 onto 24-well Millicell cell culture inserts (PC, 0.4-μm pore size, 0.6 cm^2 surface area, cat. #PIHP01250) (Millipore, Burlington, MA, USA), precoated with 0.2% bovine gelatin (Sigma-Aldrich, Saint Louis, MO, USA). After seeding, Caco-2 cells were grown in the same complete medium with re-feeding every 2–3 days until polarization of the monolayer occurred. The functional polarity of the monolayers was developed when transepithelial electrical resistance (TEER) between the apical and basolateral surfaces of the monolayers reached […] as measured by the electrical resistance system Millicell-ERS Voltohmmeter (Millipore, Burlington, MA, USA). Grown cell monolayers were used in transport and cytokine production experiments between the 21st and 29th days.
Peripheral blood mononuclear cells (PBMCs) from a healthy donor were purchased from the American Type Culture Collection (ATCC PCS-800-011). Blood monocytes were isolated from PBMCs by plastic adhesion. Mature monocyte-derived dendritic cells (moDCs) were generated in vitro from peripheral blood monocytes, according to Nair et al.. Briefly, monocytes were cultured in a humidified CO2-incubator (5% CO2, 37 °C) in the complete RPMI-1640 medium (Gibco) with 10% FBS, antibiotics, and supplemented with a cytokine cocktail containing 500 U/mL rhIL-4 and 800 U/mL rhGM-CSF (both Sci-Store, Moscow, Russia). On the third day, the medium was replaced by the same fresh medium with FBS, antibiotics, and the cytokine cocktail. Induction of maturation of the immature monocyte-derived dendritic cells was performed on the 5th day by replacing the medium with the complete RPMI-1640 medium (Gibco) with 10% FBS and antibiotics, supplemented with a cytokine cocktail containing 500 U/mL rhIL-4, 800 U/mL rhGM-CSF (both Sci-Store, Moscow, Russia), and 100 U/mL rhTNF-α (Sigma-Aldrich), and subjected to subsequent incubation of the culture for 4 more days.
Primary blood monocytes, moDCs, and NKT cells were seeded in 600 µL of complete RPMI-1640 with 10% Human AB serum (Capricorn Scientific, Ebsdorfergrund, Germany) and supplemented with 1X antibiotic–antimycotic solution into the wells of 24-well plates at a density of 3–7 × 10^5 cells/well 24 h before the experiment. Then, 24 h later, the medium in each well was replaced by the same medium with 1 µM of LL-37 for the sample wells or fresh medium alone for the control wells, and the permeable inserts with the Caco-2 monolayer with TEER > 400 Ω × cm^2, containing 400 μL of the complete medium in their apical chamber, were immediately placed into the appropriate wells. Also, inserts with the Caco-2 monolayer were placed in cell-free wells of 24-well plates in the same complete RPMI-1640 medium with or without 1 µM of LL-37 as controls. Cells were kept in a CO2-incubator (5% CO2, 37 °C) for another 24 h. Then, culture medium from each well was collected, centrifuged, and frozen at −70 °C.
To quantitatively evaluate a broad spectrum of analytes secreted by human cell cultures at the protein level, multiplex xMAP technology was used. […]

Substance: LL-37: the only human cathelicidin, host defense antimicrobial peptide of 37 a.a. residues, produced by solid-phase peptide synthesis
- IL-2 level (control 1.07): 1.07 pg/mL
- FLT-3L level (control 1.18): 1.37 pg/mL
- IFNg level (control 1.33): 2.28 pg/mL
- IL-15 level (control 1.67): 2.58 pg/mL
- IL-18 level (control 3.28): 2.42 pg/mL
- TGF-a level (control 3.5): 3.88 pg/mL
- GM-CSF level (control 3.75): 18.58 pg/mL
- IL-4 level (control 6.54): 8.01 pg/mL
- IL-9 level (control 6.65): 8.94 pg/mL
- EGF level (control 8.06): 10.26 pg/mL
- IFNa2 level (control 11.65): 13.12 pg/mL
- IL-10 level (control 14.79, p = 0.0007): 57.4 pg/mL and 57.47 pg/mL
- TNFb level (control 21.66, p = 0.015): 30.56 pg/mL
- IL-1a level (control 22.02): 53.04 pg/mL
- Fractalkine level (control 22.95): 31.4 pg/mL
- MIP-1a level (control 27.72, p = 0.11): 3622 pg/mL
- IL-1b level (control 29.14, p = 0.0072): 104 pg/mL and 104.8 pg/mL
- IL-12 (p40) level (control 34.49): 56.57 pg/mL
- M-GSF level (control 35.52): 157.86 pg/mL
- IL-1RA level (control 42.52): 108.8 pg/mL
- IL-13 level (control 42.56): 52.71 pg/mL
- FGF-2 level (control 48.6): 52.5 pg/mL
- IL-22 level (control 48.87, p = 0.029): 71 pg/mL and 71.9 pg/mL
- MIP-1b level (control 49.37, p = 0.017): >3455↑ pg/ml
- TNFa level (control 87.19, p = 0.019): 306 pg/mL and 306.44 pg/mL
- IL-27 level (control 88.48): 119.16 pg/mL
- sCD40L level (control 92.05): 88.6 pg/mL
- G-CSF level (control 181.87, p = 0.012): 1150 pg/mL
- IP-10 level (control 191.78): 3346 pg/mL
- PDGF-AA level (control 243.05): 189.29 pg/mL
- MIG level (control 306.48, p = 0.0018): 959 pg/mL and 959.23 pg/mL
- PDGF-AB/BB level (control 692.27): 713.51 pg/mL
- MCP-3 level (control 707.64): 4706 pg/mL
- VEGFa level (control 1586): 2190 pg/mL
- IL-6 level (control 2266): 5678 pg/mL
- MDC level (control 4385): 1264 pg/mL
- GROa level (control 4827): 4862 pg/mL
- MCP-1 level (control 12186): 5364 pg/mL
- IL-8 level (control 15625): 19839 pg/mL
- IL-7 level (control <0.30): <0.30↓ pg/ml
- IL-5 level (control <0.35): <0.35↓ pg/ml
- IL-3 level (control <0.55): <0.55↓ pg/ml
- RANTES level (control <0.64): 729.59 pg/mL
- IL-17A level (control <0.70): 2.63 pg/mL
- IL-12 (p70) level (control <1.71): 2.3 pg/mL
- Eotaxin level (control <2.91): <2.91↓ pg/ml
- IL-17F level (control <12.19): <12.19↓ pg/ml
- IL-17E/IL-25 level (control <19.43): <19.43↓ pg/ml
